Patent US20060252740A1 (priority 2005, published 2006)

Experiments:
[1] = tested on: patients with advanced solid tumors; conditions: population PK analysis; cited from earlier work
[2] = tested on: patients with advanced solid tumors; conditions: 80 mg/m^2 dose level, cited from earlier work
clinical = experiment: clinical
Description: PK assessments included the following tests. […] The total number of PK samples collected was approximately 115 mL of whole blood (7-8 tablespoons). If a patient experienced a potentially drug-related SAE, additional PK samples were collected. Blood was drawn from the contralateral arm to the infusion site using an indwelling catheter to avoid multiple needle sticks. […] The blood tube was inverted several times and the tube placed in wet ice immediately pending separation of the plasma. If a catheter was used for blood collection, the fluid in the catheter was completely withdrawn prior to each sample collection and discarded. Plasma samples were kept on wet ice during collection and centrifugation. Plasma samples were split into two cryovials prior to freezing at −70° C.

[3] = tested on: adult patients with solid tumors; conditions: patients treated at 56 mg/m^2; cited from earlier work
[4] = Cellular assays (potency of 17-AAG versus 17-AG); type: cell-based
MM cells = conditions: cited from earlier work
[5] = 17-AG metabolite, Cohorts 3 & 4, 17-AAG 150 mg/m^2, Max
[6] = 17-AG metabolite, Cohorts 3 & 4, 17-AAG 150 mg/m^2, Median
[7] = 17-AG metabolite, Cohorts 3 & 4, 17-AAG 150 mg/m^2, Min

## CO[C@H]1/C=C\C=C(/C)C(=O)NC2=CC(=O)C(N)=C(C[C@@H](C)C[C@H](OC)[C@H](O)[C@@H](C)/C=C(\C)[C@@H]1OC(N)=O)C2=O [17-AG, 17-aminogeldanamycin]
[1]
  Clearance: 21.3 L/h
[2]
  t1/2: 1.75 h
[2]; read-out: plasma Cmax
  Cmax: 607 nM
clinical; [5]
  AUCext: 16.0%
  AUCextra: 2,604 ng/mL * h
  AUCtotal: 16,323 ng/mL * h
  Lz: 0.1512
clinical; [6]
  AUCext: 5.0%
  AUCtotal: 3,253 ng/mL * h
  Lz: 0.1200
clinical; [7]
  AUCext: 2.2%
  AUCtotal: 980 ng·h/mL
  Lz: 0.0765
clinical; data of Tables 2 and 3, cohorts 1-4
  average ratio of AUCtotal for the 17-AG to AUCtotal for the parent drug 17-AAG: 82.5±90.5%
clinical; human, plasma, intravenous, 100 mg/m2, AUClast, 17-AG metabolite, Cohorts 1 & 2, 17-AAG 100 mg/m^2, Mean
  AUC(0-t): 3480 ng·h/mL
clinical; human, plasma, intravenous, Terminal elimination half-life, 17-AG metabolite, cohorts 1-4 combined
  half-life: 391 ± 104 min
clinical; plasma profiles after 17-AAG infusion
  elimination in plasma profiles: much slower elimination
[3]
  Clearance: 30.8 L/h/m^2
  VZ: 203 L/m^2
  average AUC: 5,558 nM*h
  average t1/2: 8.6 h
[4]
  relative potency of 17-AAG and 17-AG: equipotent in cellular assays

## CC(C)C[C@H](NC(=O)[C@H](Cc1ccccc1)NC(=O)c1cnccn1)B(O)O [bortezomib]
MM cells; pre-clinical studies
  stress response of MM cells: triggers significant Hsp90 up-regulation
MM cells; preclinical and clinical studies
  effect on drug resistance of MM cells: can overcome resistance of MM cells to conventional or high-dose cytotoxic chemotherapy
